Measured values reported in patent US20210300940A1 (Merck Patent GmbH, priority 2018, published 2021).

Tests used:
[1] = target: T1, TLR8 (Homo sapiens, UniProt Q9NR97); assay: HEK/293 TLR8 Cell Assay; assay type: cell-based; conditions: HEK cells, R848 agonist 30 uM final concentration, Steady-Glo readout; read-out: TLR8 potency
T1 construct: expressed in transfected cells; host or cells: HEK/293 reporter cells (NF-kB luciferase)
T1 sequence (Q9NR97 27-1041): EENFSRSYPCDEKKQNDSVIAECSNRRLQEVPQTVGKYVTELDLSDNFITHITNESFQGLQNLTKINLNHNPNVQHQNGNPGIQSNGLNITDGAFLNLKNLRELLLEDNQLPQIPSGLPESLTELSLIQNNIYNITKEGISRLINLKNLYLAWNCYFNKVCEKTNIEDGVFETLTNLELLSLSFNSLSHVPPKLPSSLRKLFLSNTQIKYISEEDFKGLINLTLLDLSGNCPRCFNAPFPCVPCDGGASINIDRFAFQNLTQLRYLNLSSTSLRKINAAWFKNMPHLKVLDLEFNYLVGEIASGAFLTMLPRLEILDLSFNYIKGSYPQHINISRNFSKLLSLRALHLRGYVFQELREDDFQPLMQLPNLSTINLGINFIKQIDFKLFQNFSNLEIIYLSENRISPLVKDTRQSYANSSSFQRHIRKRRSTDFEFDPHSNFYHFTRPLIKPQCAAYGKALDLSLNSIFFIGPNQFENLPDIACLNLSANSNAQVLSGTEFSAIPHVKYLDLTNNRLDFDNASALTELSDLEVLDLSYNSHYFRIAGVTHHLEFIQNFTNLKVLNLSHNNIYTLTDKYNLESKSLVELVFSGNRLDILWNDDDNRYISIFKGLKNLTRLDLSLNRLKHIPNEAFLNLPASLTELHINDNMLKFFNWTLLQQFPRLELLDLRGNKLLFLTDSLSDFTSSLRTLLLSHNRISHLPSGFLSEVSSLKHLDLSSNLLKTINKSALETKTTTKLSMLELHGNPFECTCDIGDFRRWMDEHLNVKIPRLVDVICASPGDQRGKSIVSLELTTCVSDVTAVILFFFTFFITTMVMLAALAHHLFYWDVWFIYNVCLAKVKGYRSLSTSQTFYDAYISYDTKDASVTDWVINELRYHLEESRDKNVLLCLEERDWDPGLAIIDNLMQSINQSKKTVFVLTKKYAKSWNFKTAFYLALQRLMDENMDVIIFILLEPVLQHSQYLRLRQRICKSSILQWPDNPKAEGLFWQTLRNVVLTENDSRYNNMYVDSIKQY

[2] = target: T2, TLR7 (Homo sapiens, UniProt Q9NYK1); assay: HEK/293 TLR7 Cell Assay; assay type: cell-based; conditions: TLR7/NFKb HEK cells, R848 agonist 10 uM final concentration, Steady-Glo readout; read-out: TLR7 potency
T2 construct: expressed in transfected cells; host or cells: HEK/293 cells carrying TLR7 and an NF-kB luciferase reporter
T2 sequence (Q9NYK1 27-1049): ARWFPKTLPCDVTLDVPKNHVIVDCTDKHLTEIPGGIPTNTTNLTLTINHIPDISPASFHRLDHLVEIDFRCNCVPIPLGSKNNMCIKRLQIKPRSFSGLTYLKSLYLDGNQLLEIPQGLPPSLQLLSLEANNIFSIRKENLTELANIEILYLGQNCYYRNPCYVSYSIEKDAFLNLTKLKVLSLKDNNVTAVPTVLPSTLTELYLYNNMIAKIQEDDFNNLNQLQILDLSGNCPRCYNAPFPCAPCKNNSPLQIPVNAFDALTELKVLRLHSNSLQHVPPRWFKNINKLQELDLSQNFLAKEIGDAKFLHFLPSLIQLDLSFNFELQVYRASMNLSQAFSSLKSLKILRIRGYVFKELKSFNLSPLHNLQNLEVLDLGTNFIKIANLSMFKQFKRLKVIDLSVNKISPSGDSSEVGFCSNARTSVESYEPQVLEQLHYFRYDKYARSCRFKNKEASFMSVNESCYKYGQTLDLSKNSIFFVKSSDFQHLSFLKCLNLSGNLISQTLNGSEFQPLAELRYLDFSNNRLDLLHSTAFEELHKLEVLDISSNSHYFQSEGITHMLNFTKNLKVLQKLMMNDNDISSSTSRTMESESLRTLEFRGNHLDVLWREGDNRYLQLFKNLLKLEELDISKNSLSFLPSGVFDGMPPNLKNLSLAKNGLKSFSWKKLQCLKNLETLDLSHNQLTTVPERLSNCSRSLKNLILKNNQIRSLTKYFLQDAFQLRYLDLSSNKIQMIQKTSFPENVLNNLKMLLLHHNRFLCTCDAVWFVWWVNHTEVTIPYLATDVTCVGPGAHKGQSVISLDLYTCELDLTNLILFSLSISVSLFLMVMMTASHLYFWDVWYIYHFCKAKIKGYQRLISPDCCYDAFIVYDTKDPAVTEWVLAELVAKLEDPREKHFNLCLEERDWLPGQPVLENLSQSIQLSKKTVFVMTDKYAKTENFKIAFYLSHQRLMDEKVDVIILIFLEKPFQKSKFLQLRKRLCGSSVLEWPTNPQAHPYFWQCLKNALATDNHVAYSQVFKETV
In short: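 Compounds added to HEK cells expressing TLR7 with an NFκB reporter 30 min ahead of 10 uM R848 challenge; luciferase signal (Steady-Glo) measured after 5 h, cells having been seeded 24 h earlier at 5000 per well.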

Row | SMILES | IC50 [1] [nM] | IC50 [2] [nM]
1 | Cc1ncc(N2C[C@H](NC(=O)C(F)C3CCNC3)C[C@H](C(F)(F)F)C2)c2cccnc12 (stereo partly drawn) [Example 137, 2-Fluoro-N-[(3R,5S)-1-(8-methyl-[1,7]naphthyridin-5-yl)-5-trifluoromethyl-piperidin-3-yl]-2-pyrrolidin-3-yl-acetamide] | < 75 | < 75
2 | C[C@@H](O)CNC(=O)[C@H]1CN(c2ccc(C#N)c3nccnc23)C[C@@H](C(F)(F)F)O1 (single isomer, unassigned) [Example 278] | > 150 | > 150
3 | CCN(C)CCNC(=O)[C@H]1CN(c2ccc(C#N)c3nccnc23)C[C@@H](C)O1 [Example 244, (2R,6R)-4-(8-Cyano-quinoxalin-5-yl)-6-methyl-morpholine-2-carboxylic acid [2-(ethyl-methyl-amino)-ethyl]-amide] | < 75 | < 75
4 | C[C@H]1C[C@@H](NC(=O)[C@H]2COCCN2)CN(c2ccc(C#N)c3nccnc23)C1 [Example 209, (3R)—N-[(3R,5S)-1-(8-cyanoquinoxalin-5-yl)-5-methylpiperidin-3-yl]morpholine-3-carboxamide] | < 75 | 75 to 150
5 | C[C@@H]1CN(c2ccc(C#N)c3nccnc23)C[C@H](C(=O)NC[C@@H](O)CO)O1 [Example 233, (2R,6R)-4-(8-Cyano-quinoxalin-5-yl)-6-methyl-morpholine-2-carboxylic acid ((R)-2,3-dihydroxy-propyl)-amide] | < 75 | < 75
6 | Cc1ccc(N2C[C@H](NC(=O)CC3(O)CCN(C)CC3)C[C@H](C(F)(F)F)C2)c2cccnc12 [Example 87, 2-(4-hydroxy-1-methylpiperidin-4-yl)-N-[(3R,5S)-1-(8-methylquinolin-5-yl)-5-(trifluoromethyl)piperidin-3-yl]acetamide] | < 75 | < 75
7 | C[C@H]1C[C@@H](NC(=O)CC2CS(=O)(=O)C2)CN(c2ccc(C#N)c3nccnc23)C1 [Example 207, N-[(3R,5S)-1-(8-cyanoquinoxalin-5-yl)-5-methylpiperidin-3-yl]-2-(1,1-dioxo-1λ^6-thietan-3-yl)acetamide] | 75 to 150 | > 150
8 | C[C@@H]1CN(c2ccc(C#N)c3nccnc23)C[C@H](C(=O)NCCCS(C)(=O)=O)O1 [Example 260, (2R,6R)-4-(8-cyanoquinoxalin-5-yl)-N-(3-methanesulfonylpropyl)-6-methylmorpholine-2-carboxamide] | > 150 | 75 to 150
9 | N#Cc1ccc(N2C[C@@H](C(=O)NC[C@]3(F)CCNC3)O[C@@H](C(F)(F)F)C2)c2cccnc12 (single isomer, unassigned) [Example 313] | < 75 | < 75
10 | C[C@H]1C[C@@H](NCC2(O)CCOCC2)CN(c2ccc(C#N)c3nccnc23)C1 [Example 14, 8-{(3R,5S)-3-[(4-Hydroxy-tetrahydro-pyran-4-ylmethyl)-amino]-5-methyl-piperidin-1-yl}-quinoxaline-5-carbonitrile] | < 75 | < 75
11 | C[C@H]1C[C@@H](NCCC(=O)NC2CS(=O)(=O)C2)CN(c2ccc(C(F)(F)F)c3ncccc23)C1 [Example 54, N-(1,1-Dioxo-1lambda6-thietan-3-yl)-3-[(3R,5S)-5-methyl-1-(8-trifluoromethyl-quinolin-5-yl)-piperidin-3-ylamino]-propionamide] | < 75 | < 75
12 | C[C@H]1C[C@@H](OCCN2CCCCC2)CN(c2ccc(C#N)c3nccnc23)C1 [Example 5, 8-[(3S,5R)-3-methyl-5-[2-(piperidin-1-yl)ethoxy]piperidin-1-yl]quinoxaline-5-carbonitrile] | < 75 | < 75
13 | C[C@@H]1CN(c2cnc(C#N)c3ncccc23)C[C@H](C(=O)NC[C@@H]2CN(C)CCO2)O1 [Example 275, (2R,6R)-4-(8-Cyano-[1,7]naphthyridin-5-yl)-6-methyl-morpholine-2-carboxylic acid ((R)-4-methyl-morpholin-2-ylmethyl)-amide] | < 75 | < 75
14 | C[C@@H]1CN(c2cnc(C#N)c3ncccc23)C[C@H](C(=O)NCC(O)C(F)(F)F)O1 (stereo partly drawn) [Example 269, (2R,6R)-4-(8-Cyano-[1,7]naphthyridin-5-yl)-6-methyl-morpholine-2-carboxylic acid (3,3,3-trifluoro-2-hydroxy-propyl)-amide] | > 150 | > 150
15 | C[C@H]1C[C@@H](NC(=O)C[C@H](O)CN(C)C)CN(c2ccc(C#N)c3nccnc23)C1 [Example 210, (3S)—N-[(3R,5S)-1-(8-cyanoquinoxalin-5-yl)-5-methylpiperidin-3-yl]-4-(dimethylamino)-3-hydroxybutanamide] | < 75 | < 75
16 | CN1CCC(F)(CNC(=O)[C@@H]2CN(c3ccc(C#N)c4ncccc34)C[C@H](C(F)(F)F)O2)CC1 (single isomer, unassigned) [Example 354] | > 150 | 75 to 150
17 | C[C@@H]1CN(c2cnc(C#N)c3ncccc23)C[C@H](CNC(=O)[C@@]2(F)CCNC2)O1 (single isomer, unassigned) [Example 336] | < 75 | < 75
18 | CCN(CC)CCO[C@@H]1C[C@H](C)CN(c2ccc(C#N)c3nccnc23)C1 [Example 6, 8-[(3R,5S)-3-[2-(diethylamino)ethoxy]-5-methylpiperidin-1-yl]quinoxaline-5-carbonitrile] | < 75 | < 75
19 | Cc1ncc(N2C[C@@H](C)C[C@@H](NC(=O)CC3C4CC3CN(C)C4)C2)c2cccnc12 (stereo partly drawn) [Example 165, 2-(3-Methyl-3-aza-bicyclo[3.1.1]hept-6-yl)-N-[(3R,5S)-5-methyl-1-(8-methyl-naphthyridin-5-yl)-piperidin-3-yl]-acetamide] | < 75 | < 75
20 | C[C@@H]1CN(c2ccc(C#N)c3nccnc23)C[C@H](C(=O)N[C@H]2CCN(CC3CC3)C2)O1 (single isomer, unassigned) [Example 322] | < 75 | < 75
21 | C[C@H]1C[C@@H](NCC2(O)CCOCC2)CN(c2ccc(C(F)(F)F)c3ncccc23)C1 [Example 50, 4-{[(3R,5S)-5-Methyl-1-(8-trifluoromethyl-quinolin-5-yl)-piperidin-3-ylamino]-methyl}-tetrahydro-pyran-4-ol] | < 75 | < 75
22 | C[C@@H]1CN(c2cnc(C#N)c3ncccc23)C[C@H](C(=O)NC2CCNCC2(F)F)O1 (stereo partly drawn) [Example 302, (2R,6R)-4-(8-Cyano-[1,7]naphthyridin-5-yl)-6-methyl-morpholine-2-carboxylic acid (3,3-difluoro-piperidin-4-yl)-amide] | > 150 | > 150
